Laboratory results taken from patent US20200281897A1, “INDAZOLE DERIVATIVES FOR CANCER TREATMENT” (Servicio Andaluz de Salud, priority 2016, published 2020).

Key:
MM1S = experiment: MTT cell viability assay, myeloma cell line MM1S; type: cell-based, human; conditions: MM1S, MTT, 18 hours, doses 0-50 μM; read-out: IC50, cell viability
Description: (§1) In vitro studies were carried out using six different human MM cell lines, U266, RPMI8226, MM1S, MM1R, U266-LR7, and RPMI-LR5. For ex vivo assays, human primary cells from healthy donors and MM patients were used (Table 1). Human MM cell lines U266, RPMI8226, and MM1.S were acquired from ATCC and lines U266-LR7, RPMI-LR5, and MM1.R were kindly provided by Dr. Enrique Ocio (Hospital Universitario de Salamanca, Spain). The primary cells were obtained from bone marrow (BM) aspirates or peripheral blood (PB) samples, and the peripheral blood mononuclear cells (PBMCs) were isolated by Ficoll-Hypaque centrifugation and washed twice in phosphate buffered saline (PBS) containing 1% BSA. Hematopoietic stem cells and B and T lymphocytes were isolated from healthy PB donors by positive immunomagnetic separation using human MACS CD34+, CD19+, and CD3+ microbeads, respectively. MM plasma cells were obtained from the bone marrow (BM) of patients with an infiltration of cells of more than 30% (Table 1). The MM plasma cells were identified using CD138+, and were then distinguished from the other cell populations by flow cytometry using a suitable combination of antibodies: anti-human CD64-FITC, CD34-PE, CD56-APC, CD38-APC-H7, and CD45-Pacific Blue antibodies (BD Biosciences, San Jose, Calif.). All the cell lines were cultured in RPMI-1640 supplemented with 10% fetal bovine serum (FBS) and 1% penicillin/streptomycin, as recommended by the supplier. For human primary cells, the concentration of FBS was up to 20%.
(§2) The MM cell lines and primary cells were exposed to different doses of indazole compounds, and viability was evaluated at 18, 48, and 72 hours. Pretreatments with the ceramide synthesis inhibitor (FB1), pan-caspase (ZVAD-FMK), and CB antagonists (PGN-8, PGN-37, and PGN-70) were performed for 30 minutes, and then the cells were incubated with indazole compound WIN-55 up to 18 hours. Cell viability was determined using the MTT assay Cell Counting Kit-8 (Dojindo, Kumamoto, Japan) according to the manufacturer's instructions.

RPMI8226 = experiment: MTT cell viability assay, myeloma cell line RPMI; type: cell-based, human; conditions: RPMI, MTT, 18 hours, doses 0-50 μM; read-out: IC50, cell viability
Description: as §1, §2

myeloma cell lines = experiment: MTT cell viability assay, average over all myeloma cell lines; type: cell-based, human; conditions: average over the six myeloma cell lines, MTT, 18 hours; read-out: IC50 average
Description: as §1, §2

[1] = tested on: U266, U266-LR7, RPMI and RPMI-LR5; experiment: Synergy of WIN-55 with anti-myeloma agents, MTT and combination index; type: cell-based, human
Description: The evaluation of the synergy of the indazole compound WIN-55 with other anti-myeloma agents, such as dexamethasone and melphalan, was done by evaluating cell viability by means of an MTT assay.
Unless otherwise indicated, an experiment representative of at least three independent experiments is shown. For all the statistical analyses, the data was analyzed by means of Student's T-test with the SPSS software with a statistical significance P≤0.05. The means and standard deviations were also determined. The synergy was calculated using R as described in the Calcusyn software; a combination index (CI)<1 indicates synergy, and >1 indicates antagonism.

U937 = experiment: WST-1 cell viability assay, U937; type: cell-based, human; conditions: U937, 18 hours
Description: U937, NB-4, KG-1, and MOLM-13 (DMSZ, Braunschweig, Germany) were cultured in complete RPMI 1640 medium (with 2 mM of L-glutamine, 100 mg of penicillin, 100 μg/ml of streptomycin, and with 10% FBS), supplemented with 10 mM HEPES, 1×NaPuvuvato, and 1× non-essential amino acids.
The cell lines and primary cells were cultured in 96-well plates (5×10e5 cells per well) with the addition of the indicated concentrations of WIN 55,212-2 or PGN cannabinoids in DMSO or with the solvent only in triplicate at 18, 48, and 72 hours. Caspase inhibitor Z-VAD (OMe)-FMK or the CB2 receptor antagonist PGN-8, -37, and -70, together with the cannabinoid WIN-55,212-2, were also added. Cell viability was determined by means of the WST-1 assay [2-(4-iodophenyl)-3-(4-nitrophenyl)-5-(2,4-disulfophenyl)-2H-tetrazolium] according to the manufacturer's instructions (Dojindo Molecular Technologies). Optical densities were measured at 450 nm using a Multiskan™ Go Microplate plate reader (Thermo Fisher Scientific, Waltham, Mass., USA).
Now it will be analyzed whether the exposure to cannabinoids had any effect on the viability of the tumor cells in vitro. […]

HL60 = experiment: Mitochondrial damage and ER stress in HL60 cells; type: cell-based, human; conditions: HL60, 50 μM, 15 and 30 minutes
Description: The controls that are untreated and the cells (10^6 cells per assay) treated with WIN-55,212-2 (50 μM) for 15 and 30 minutes at 37° C. were stained with 5 μM MitoSOX probe [Molecular Probes (Invitrogen)] to detect the mitochondrial superoxide. The MitoSOX signal was detected by flow cytometry.
The detailed methodology for analyzing mitochondrial membrane potential (APm), Western Blot analysis, and immunocytofluorescence analysis has been described elsewhere 29

[2] = tested on: hematopoietic progenitor populations; experiment: Effect on normal hematopoiesis in healthy BALB/c mice; type: in vivo; conditions: 5 mg/kg/day for 7 and 28 days
Description: The effect of the cannabinoid on normal hematopoiesis was also tested by means of the treatment of healthy BALB/c mice with WIN-55,212-2 at a dose of 5 mg/kg/day for 7 and 28 days. The bone marrow and the peripheral blood population were analyzed by means of flow cytometry and blood counts.

HL60 cells = experiment: Murine model of AML (HL60 in NSG mice); type: in vivo; conditions: 5 mg/kg/day
Description: The NOD/scid/IL-2R gammae null (NSG) mice were acquired from Charles River Laboratories International (L'Arbresle, France) and received food and water ad libitum, under specific pathogen-free conditions. When the mice were 8-12 weeks old, AML was induced by intravenous inoculation of the HL60 cell line, and the mice were monitored to confirm progression of the disease by means of studying weight loss and detecting human CD45+ cells in bone marrow BM aspirates and flow cytometry analysis. Once the presence of leukemia cells was confirmed, treatment with a vehicle, WIN-55 212 cannabinoid was administered at a dose of 5 mg/kg/day or cytarabine (ARA-C) at 50 mg/kg for 5 days.

## CS(=O)(=O)O.Cc1c(C(=O)c2cccc3ccccc23)c2cccc3c2n1[C@H](CN1CCOCC1)CO3 [WIN-55, (R)-(+)-[2,3-dihydro-5-methyl-3-(4-morpholinomethyl)-pyrrolo[1,2,3]-1,4-benzoxazin-6-yl]-1-naphthalenylmethanone mesylate]
MM1S
  IC50: 13.6 µM
RPMI8226
  IC50: 11.7 µM
Myeloma cell lines
  IC50: 14.6 µM
[1]; WIN-55 20 μM (U266, U266-LR7, RPMI-LR5) or 10 μM (RPMI) plus DEX
  combination effect (combination index) with dexamethasone: synergistic effect
[1]; WIN-55 20 μM (U266, U266-LR7, RPMI-LR5) or 10 μM (RPMI) plus MPH
  combination effect (combination index) with melphalan: synergistic effect
U937
  % viable cells at 50 μM: 17.2%
  IC50: 16 µM
HL60
  mitochondrial damage and ER stress: early mitochondrial damage and ER stress
[2]
  viability of hematopoietic progenitor populations: do not affect the viability
HL60 cells
  number of HL60 cells in bone marrow: vast reduction
HL60 cells; versus control group and ARA-C group
  survival: significant increase in survival
